Test results reported in US20050101595A1, “N-containing cycloalkyl-substituted amino-thiazole derivatives and pharmaceutical compositions for inhibiting cell proliferation and methods for their use” (PFIZER INC., priority 2003, published 2005).
Structures can show the parent of a compound that is named as a salt. Where two headings read alike, the source gives them in different places. Values belong to the compound of their own block, whether it stands above or below them.

Tests used:
CDK2/Cyclin A = CDK2/Cyclin A (Homo sapiens, UniProt P24941); test: Inhibition of CDK2/Cyclin A Retinoblastoma Kinase Activity; assay type: biochemical; settings: for CDK2 % Inhibition At 0.03 μM: Table 2; for Ki: apparent Ki, CDK2/proteolyzed cyclin A, Rb fragment substrate, 25 μM ATP
Outline: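 Percent inhibition is calculated against DMSO-only wells after subtracting no-enzyme background. The enzyme is human CDK2 complexed with proteolyzed cyclin A, used at 10 nM or 19 nM on an Rb fragment with 25 μM [32/33P]ATP, at pH 7.4 and 30° C.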

[1] = target: human CDK4 and genetically truncated (1-264) cyclin D3 (Homo sapiens, UniProt P11802); test: Inhibition of CDK4/Cyclin D Retinoblastoma Kinase Activity; assay type: biochemical; settings: for Ki: apparent Ki, CDK4/truncated cyclin D3, Rb fragment substrate, 25 μM ATP
human CDK4 and genetically truncated (1-264) cyclin D3, sequence (P11802 whole entry, the tested form may be a part): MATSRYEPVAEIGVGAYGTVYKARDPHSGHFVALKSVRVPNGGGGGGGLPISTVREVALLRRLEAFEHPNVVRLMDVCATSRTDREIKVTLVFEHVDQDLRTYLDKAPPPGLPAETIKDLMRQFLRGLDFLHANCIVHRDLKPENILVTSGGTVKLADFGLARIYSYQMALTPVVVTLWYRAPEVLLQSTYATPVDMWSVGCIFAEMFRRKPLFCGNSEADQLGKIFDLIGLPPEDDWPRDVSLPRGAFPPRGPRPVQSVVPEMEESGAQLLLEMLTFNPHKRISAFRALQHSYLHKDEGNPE
human CDK4 and genetically truncated (1-264) cyclin D3, sequence (P30281 1-264 partner): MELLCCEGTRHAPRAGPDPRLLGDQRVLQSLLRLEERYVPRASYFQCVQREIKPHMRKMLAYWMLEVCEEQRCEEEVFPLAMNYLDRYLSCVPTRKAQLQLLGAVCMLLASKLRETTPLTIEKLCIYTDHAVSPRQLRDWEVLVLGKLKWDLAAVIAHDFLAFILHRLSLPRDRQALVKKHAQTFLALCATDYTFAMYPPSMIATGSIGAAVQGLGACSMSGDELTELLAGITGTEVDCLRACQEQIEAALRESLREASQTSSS
Outline: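 Apparent Ki values derive from fitting activity at varied inhibitor concentrations to a competitive (or competitive tight-binding) model. Kinase reactions used 5 nM CDK4/cyclin D3(1-264), Rb fragment substrate and 25 μM ATP. Incubation ran 20 min at 30 °C, extended to 60 min under linear conditions for tight binders.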

HCT-116 cell line = test: Inhibition of cell growth, tetrazolium salt (MTT) assay; assay type: cell-based; settings: for HCT-116 % Inhibition at 0.25 μM: 0.25 μM compound; for IC50: Homo sapiens, HCT-116, 120 h, MTT, three to five days, read-out: HCT-116 IC50
Outline: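 HCT-116 cells in McCoy's 5A medium received compound 4 h after plating (0.5% v/v DMSO) and were incubated three to five days at 37° C, 5% CO2. MTT (0.2 mg/mL final) then added for 4 h; DMSO-solubilized formazan read at 540 nm against 0.5% DMSO-treated controls.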

[2] = 0.1 μM compound, HCT-116, Table 4

CDK2 % Inhibition at 0.03 μM (CDK2/Cyclin A; 0.03 μM compound, Table 4): 13%
CDK4 % Inhibition at 0.03 μM ([1]; 0.03 μM compound, Table 4): 50%
Structure (SMILES): Nc1nc(NC2CCN(C(=O)c3cnc4ccccc4n3)CC2)sc1C(=O)c1c(F)cccc1F [Example Q67]
HCT-116 % Inhibition at 0.1 μM (HCT-116 cell line; [2]): 9%
HCT-116 % Inhibition at 0.25 μM (HCT-116 cell line; HCT-116, Table 4): 30%

CDK2 % Inhibition at 0.03 μM (CDK2/Cyclin A; 0.03 μM compound, Table 3): 49%
CDK4 % Inhibition at 0.03 μM ([1]; 0.03 μM compound, Table 3): 47%
Structure (SMILES): N#Cc1c(Cl)cccc1Oc1ccc(S(=O)(=O)N2CCC(Nc3nc(N)c(C(=O)c4c(F)cccc4F)s3)CC2)cc1 [Example P52]
HCT-116 % Inhibition at 0.1 μM (HCT-116 cell line; 0.1 μM compound, HCT-116, Table 3): 16%
HCT-116 % Inhibition at 0.25 μM (HCT-116 cell line; HCT-116, Table 3): 22%

CDK2 % Inhibition at 0.03 μM (CDK2/Cyclin A; 0.03 μM compound, Table 4): 19%
CDK4 % Inhibition at 0.03 μM ([1]; 0.03 μM compound, Table 4): 38%
Structure (SMILES): Nc1nc(NC2CCN(C(=O)c3cc([N+](=O)[O-])cc([N+](=O)[O-])c3)CC2)sc1C(=O)c1c(F)cccc1F [Example Q70]
HCT-116 % Inhibition at 0.1 μM (HCT-116 cell line; [2]): 5%
HCT-116 % Inhibition at 0.25 μM (HCT-116 cell line; HCT-116, Table 4): 26%

CDK2 % Inhibition at 0.03 μM (CDK2/Cyclin A; at 0.03 μM): −5%
CDK4 % Inhibition at 0.03 μM ([1]; at 0.03 μM): 10%
Structure (SMILES): Nc1nc(NC2CCN(C(=O)CC3CCCCC3)CC2)sc1C(=O)c1c(F)cccc1F [Example R100]
HCT-116 % Inhibition at 0.1 μM (HCT-116 cell line; HCT-116 cells, at 0.1 μM): 0%
HCT-116 5 Inhibition at 0.25 μM (HCT-116 cell line; HCT-116 cells): 49

CDK2 % Inhibition At 0.03 μM (CDK2/Cyclin A; 0.03 μM compound): 29%
CDK4 % Inhibition at 0.03 μM ([1]; 0.03 μM compound, Table 2): 5%
Structure (SMILES): CCOC(=O)C(CC(C)C)NC(=O)N1CCC(Nc2nc(N)c(C(=O)c3c(F)cccc3F)s2)CC1 (stereo not shown) [Example O69]
HCT-116 % Inhibition at 0.25 μM (HCT-116 cell line; HCT-116, Table 2): 51%

Ki (CDK2/Cyclin A): 0.17 µM
Ki [1]: 0.027 µM
IC50 (HCT-116 cell line; first HCT-116 column (c4)): 0.05 µM
IC50 (HCT-116 cell line; second HCT-116 column (c5)): 0.17 µM
Structure (SMILES): Cc1ccc(C(=O)N2CCC(Nc3nc(N)c(C(=O)c4c(F)cccc4F)s3)CC2)cc1C [Example D15, {4-Amino-2-[1-(3,4-dimethyl-benzoyl)-piperidin-4-ylamino]-thiazol-5-yl}-(2,6-difluoro-phenyl)-methanone]

CDK2 % Inhibition At 0.03 μM (CDK2/Cyclin A; 0.03 μM compound): 36%
CDK4 % Inhibition at 0.03 μM ([1]; 0.03 μM compound, Table 2): 4%
Structure (SMILES): COc1cccc(NC(=O)N2CCC(Nc3nc(N)c(C(=O)c4c(F)cccc4F)s3)CC2)c1 [Example O15]
HCT-116 % Inhibition at 0.25 μM (HCT-116 cell line; HCT-116, Table 2): 13%

CDK2 % Inhibition at 0.03 μM (CDK2/Cyclin A; at 0.03 μM): 20%
CDK4 % Inhibition at 0.03 μM ([1]; at 0.03 μM): 46%
Structure (SMILES): Nc1nc(NC2CCN(C(=O)c3ccc(Cl)cc3)CC2)sc1C(=O)c1c(F)cccc1F [Example R144]
HCT-116 % Inhibition at 0.1 μM (HCT-116 cell line; HCT-116 cells, at 0.1 μM): 0%
HCT-116 5 Inhibition at 0.25 μM (HCT-116 cell line; HCT-116 cells): 38

Ki (CDK2/Cyclin A): 0.085 µM
Ki [1]: 0.062 µM
IC50 (HCT-116 cell line; first HCT-116 column (c4)): 0.06 µM
IC50 (HCT-116 cell line; second HCT-116 column (c5)): 0.2 µM
Structure (SMILES): Cc1cc(C)cc(CC(=O)N2CCC(Nc3nc(N)c(C(=O)c4c(F)cccc4F)s3)CC2)c1 [Example D10, 1-{4-[4-Amino-5-(2,6-difluoro-benzoyl)-thiazol-2-ylamino]piperidin-1-yl}-2-(3,5-dimethyl-phenyl)-ethanone]

Ki (CDK2/Cyclin A): < 0.001 µM
Ki [1]: 0.00086 µM
IC50 (HCT-116 cell line; first HCT-116 column (c4)): 0.42 µM
IC50 (HCT-116 cell line; second HCT-116 column (c5)): > 5 µM
Structure (SMILES): Nc1nc(NC2CCN(S(=O)(=O)c3ccc(N4CCC(O)C4)nc3)CC2)sc1C(=O)c1c(F)cccc1F (stereo not shown) [Example G11, 1-(4-Amino-2-{1-[6-(3-hydroxy-pyrrolidin-1-yl)-pyridin-3-sulfonyl]-piperidin-4-ylamino}-thiazol-5-yl)-1-(2,6-difluoro-phenyl)-methanone Trifluoroacetic Acid Salt]

Ki (CDK2/Cyclin A): 0.0064 µM
Ki [1]: 0.0068 µM
IC50 (HCT-116 cell line; first HCT-116 column (c4)): > 5 µM
IC50 (HCT-116 cell line; second HCT-116 column (c5)): > 5 µM
Structure (SMILES): Nc1nc(NC2CCN(C(=O)[C@@H]3CCC(=O)O3)CC2)sc1C(=O)c1c(F)cccc1F [Example D5, 5S-[1{-4-[4-Amino-5-(2,6-difluoro-benzoyl)-thiazol-2-ylamethano]-piperidin-1-yl}-methanoyl]-tetrahydro-furan-2-one]

Ki (CDK2/Cyclin A): 0.0025 µM
Ki [1]: 0.0034 µM
IC50 (HCT-116 cell line; first HCT-116 column (c4)): 0.89 µM
IC50 (HCT-116 cell line; second HCT-116 column (c5)): 2.2 µM
Structure (SMILES): N#CCCCS(=O)(=O)N1CCC(Nc2nc(N)c(C(=O)c3c(F)cccc3F)s2)CC1 [Example K17, 1-(4-{4-Amino-5-[1-(2,6-difluorophenyl)methanoyl]-thiazol-2-ylamino}-piperidine-1-sulfonyl)butyronitrile.]
